Like-named read-outs stand apart in the source and are kept apart here.
What was measured:
[1] = target: T1, PfCRT^3D7 in C2^GC03 parasites (Plasmodium falciparum, UniProt Q8IBZ9); assay: P. falciparum H+-efflux assay (rate of DV alkalinisation after concanamycin A); type: cell-based; settings: C2GC03; for Effect on rate of DV alkalinisation / H+ leak (in words): test solute 10 μM
T1 construct: PfCRT also functions as a peptide transporter within its native environment of the DV membrane; expressed in transfected cells; host or cells: P. falciparum pfcrt transfectant line C2^GC03 (saponin-isolated trophozoites)
T1 sequence (Q8IBZ9 1-424): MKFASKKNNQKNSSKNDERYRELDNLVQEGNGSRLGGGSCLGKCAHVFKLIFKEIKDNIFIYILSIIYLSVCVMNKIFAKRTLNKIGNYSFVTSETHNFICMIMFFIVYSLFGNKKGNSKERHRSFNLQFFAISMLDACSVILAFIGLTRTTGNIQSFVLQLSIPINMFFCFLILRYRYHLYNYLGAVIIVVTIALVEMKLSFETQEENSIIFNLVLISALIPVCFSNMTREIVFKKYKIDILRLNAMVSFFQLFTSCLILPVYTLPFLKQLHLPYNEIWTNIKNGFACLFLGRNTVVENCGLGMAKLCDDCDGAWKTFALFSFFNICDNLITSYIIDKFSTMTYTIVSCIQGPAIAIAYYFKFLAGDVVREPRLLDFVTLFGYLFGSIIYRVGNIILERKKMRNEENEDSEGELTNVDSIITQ

PfCRT^Ecu1110 = PfCRT^Ecu1110 (Plasmodium falciparum, UniProt Q9N623, A220S/I356L/K76T/N326D); assay: cell-based; settings: mean ± SEM, n = 5, SEM
Chain of PfCRT^Ecu1110 (Q9N623 whole entry A220S/I356L/K76T/N326D, canonical isoform): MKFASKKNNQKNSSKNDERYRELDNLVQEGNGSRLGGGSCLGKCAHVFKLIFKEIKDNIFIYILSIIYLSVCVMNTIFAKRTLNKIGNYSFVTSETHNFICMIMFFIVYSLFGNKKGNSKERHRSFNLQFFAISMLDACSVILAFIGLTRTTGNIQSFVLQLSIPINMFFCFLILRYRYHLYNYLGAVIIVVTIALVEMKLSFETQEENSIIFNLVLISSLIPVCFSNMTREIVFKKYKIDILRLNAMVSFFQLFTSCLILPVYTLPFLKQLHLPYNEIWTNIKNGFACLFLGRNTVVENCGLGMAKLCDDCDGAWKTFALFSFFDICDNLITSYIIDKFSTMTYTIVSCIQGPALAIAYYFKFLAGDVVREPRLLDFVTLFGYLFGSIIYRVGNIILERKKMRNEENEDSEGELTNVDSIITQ
Method: (§1) The characterisation of [^3H]VF-6 transport via 23 different field and laboratory-derived isoforms of PfCRT was undertaken with oocytes two days post-cRNA-injection (Figs. 3a–j, 4; Supplementary Fig. 2). The oocytes were injected with 25 nL of ND96 buffer (pH 5.5) supplemented with [^3H]VF-6 and unlabelled VF-6 to achieve estimated intracellular concentrations of 1.4 and 200 μM, respectively. Ten oocytes that had resealed at the injection site were transferred to a 5 mL polystyrene round bottom tube (In Vitro Technologies) and washed with 3.5 mL of ND96 buffer before being transferred to separate wells of a white 96-well plate (PerkinElmer). This treatment served to establish the amount of radioactivity within the oocytes immediately prior to the commencement of the transport assay. Another 10 resealed oocytes were transferred to a 5 mL tube and washed with 3.5 mL of ND96 buffer. […] The assay was terminated by removing the reaction buffer with a pipette and washing the oocytes twice with 3.5 mL of ice-cold ND96 buffer. Each oocyte was transferred to a separate well of a white 96-well plate. The oocytes were lysed by the addition of 20 μL of 10% (w/v) SDS and overnight incubation at room temperature. The lysed oocyte was then combined with 150 μL of MicroScint-40 microscintillant (PerkinElmer), the plate covered with a TopSeal-A (PerkinElmer), and the radioactivity measured with a MicroBeta^2 microplate liquid scintillation analyser (PerkinElmer). VF-6 transport was calculated by subtracting the amount of radioactivity (measured in counts per minute) present within the oocytes at the end of the incubation from that measured in the oocytes sampled immediately before the commencement of the assay. The pH-dependence of transport (Fig. 3c) was determined by injecting the oocytes with [^3H]VF-6 suspended in 25 nL ND96 buffer adjusted to pH 5.0, 5.5, 6.0 or 7.0, which corresponded to the injection of 2.5–250 fmol of H^+. The dependence of [^3H]VF-6 transport on Na^+ or Cl^− was examined by injecting the oocytes with [^3H]VF-6 suspended in the control ND96 buffer (pH 5.5) or a version of this buffer that lacked either Na^+ or Cl^− (Supplementary Fig. 2). […] The dependence of peptide transport on Ca^2+ was determined by injecting the oocytes with [^3H]VF-6 suspended in ND96 buffers that contained different concentrations of Ca^2+ (0–5 mM; Supplementary Fig. 2). […] The dependence of PfCRT-mediated transport on the membrane potential was examined by using (1) Na^+ ionophore III in conjunction with the Na^+ gradients listed in Supplementary Data 7 and (2) Cl^− ionophore III in conjunction with the Cl^− gradients listed in Supplementary Data 7 to clamp the membrane potential of the oocyte from −80 to +80 mV. […] The kinetic parameters for VF-6 transport via different isoforms of PfCRT (Figs. 3e and 4a) were determined in SigmaPlot Windows Version 11.0 by a least-squares fit of the Michaelis–Menten equation to the data.
(§2) A subset of assays measured the ability of solutes known to interact with PfCRT to either cis-inhibit, trans-inhibit or trans-stimulate [^3H]VF-6 transport. These experiments involved adding these solutes to either the cis- or trans-side of the membrane relative to [^3H]VF-6. […] At least five independent experiments were performed (on different days and using oocytes from different frogs), and within each experiment measurements were made from ten oocytes per treatment.

PfCRT^Dd2 = PfCRT^Dd2 (Plasmodium falciparum, UniProt Q9N623, A220S/I356T/K76T/M74I/N326S/N75E/Q271E/R371I); assay: cell-based; settings: mean ± SEM, n = 5, SEM
Chain of PfCRT^Dd2 (Q9N623 whole entry A220S/I356T/K76T/M74I/N326S/N75E/Q271E/R371I): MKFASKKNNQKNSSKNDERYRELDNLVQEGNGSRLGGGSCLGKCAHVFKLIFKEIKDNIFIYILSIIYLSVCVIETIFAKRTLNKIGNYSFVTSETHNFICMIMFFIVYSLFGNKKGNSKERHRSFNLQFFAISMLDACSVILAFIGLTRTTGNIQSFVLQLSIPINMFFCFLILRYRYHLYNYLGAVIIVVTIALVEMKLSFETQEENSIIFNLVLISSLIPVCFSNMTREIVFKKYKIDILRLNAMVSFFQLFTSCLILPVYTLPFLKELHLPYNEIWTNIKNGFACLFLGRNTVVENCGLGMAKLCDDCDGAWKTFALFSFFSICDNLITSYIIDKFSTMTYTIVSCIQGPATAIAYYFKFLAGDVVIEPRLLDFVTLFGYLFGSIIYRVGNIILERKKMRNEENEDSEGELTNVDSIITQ
Method: as §1, §2

PfCRT^3D7 = PfCRT^3D7 (Plasmodium falciparum, UniProt Q8IBZ9); assay: cell-based; settings: for IC50: mean ± SEM, n = 5, SEM; for Trans effect on [3H]VF-6 transport via PfCRT (in words): all three PfCRT isoforms (3D7, Ecu1110, Dd2)
Method: as §1, §2

PfCRT = assay: Potential co-substrates tested for influx of VF-6 via PfCRT into the oocyte; type: cell-based, Plasmodium falciparum; parameters: key: X: Compounds that have been tested as potential co-substrates but are not required for influx of VF-6 via PfCRT into the oocyte
[2] = Cis-inhibition IC50 of [3H]VF-6 transport, PfCRTEcu1110, drug on same side as [3H]VF-6
[3] = Cis-inhibition IC50 of [3H]VF-6 transport, PfCRTDd2, drug on same side as [3H]VF-6

SMILES	Effect on rate of DV alkalinisation / H+ leak (in words) [1]	IC50 (PfCRT^Ecu1110; [2]) [µM]	IC50 (PfCRT^Ecu1110; Trans-inhibition IC50 of [3H]VF-6 transport, PfCRTEcu1110, drug on opposite side to [3H]VF-6) [µM]	IC50 (PfCRT^Dd2; [3]) [µM]	IC50 (PfCRT^Dd2; Trans-inhibition IC50 of [3H]VF-6 transport, PfCRTDd2, drug on opposite side to [3H]VF-6) [µM]	IC50 (PfCRT^3D7; Cis-inhibition IC50 of [3H]VF-6 transport, PfCRT3D7, drug on same side as [3H]VF-6) [µM]	IC50 (PfCRT^3D7; Trans-inhibition IC50 of [3H]VF-6 transport, PfCRT3D7, drug on opposite side to [3H]VF-6) [µM]	Extracellular concentration giving modest trans-stimulation of [3H]VF-6 transport (PfCRT^3D7; all three PfCRT isoforms) [µM]	Tested as potential co-substrate but not required for influx of VF-6 via PfCRT into the oocyte (PfCRT)	Maximum rate of peptide mimic-induced DV alkalinization ([1]; mean ± SEM, n = 5, SEM) [fluorescence ratio/s]	Trans effect on [3H]VF-6 transport via PfCRT (in words) (PfCRT^3D7)	Trans effect on [3H]VF-6 transport via PfCRT (in words) (PfCRT^3D7; listed as SQV)	IC50 (PfCRT^3D7; drug on same side as [3H]VF-6, read-out: Cis-inhibition IC50 of [3H]VF-6 transport, PfCRT3D7) [µM]
CCN(CC)CCCC(C)Nc1ccnc2cc(Cl)ccc12 (centres unmarked) [CQ, chloroquine, reference compound]	decrease slightly	72 ± 3.1	62 ± 2.6	53 ± 2.8	54 ± 3.6	110 ± 5.9	77 ± 5.2	≥ 500					
N[C@@H](Cc1c[nH]cn1)C(=O)O [L-histidine]	without effect								X				
CC(C)(C)NC(=O)[C@@H]1C[C@@H]2CCCC[C@@H]2CN1C[C@@H](O)[C@H](Cc1ccccc1)NC(=O)[C@H](CC(N)=O)NC(=O)c1ccc2ccccc2n1 [Saquinavir, saquinavir, reference compound]	increased the rate of DV alkalinisation	74 ± 3.9		89 ± 3.8						0.039 ±0.002	trans-stimulated	Trans-stimulates	50 ± 2.3

Source: publication PMC7413254 (Nature Communications, 2020)
